Source: patent US10364249B2, “Azatriangulenium salts as PET-quenched fluorescent probes” (KØBENHAVNS UNIVERSITET, priority 2013, dated 2019)
Read-outs that look alike come from different tables or passages of the source.

Assays:
Assay type in all cases: physicochemical
[1] = Ratiometric emission of pH sensor spot with dyes bound into SOL-GEL-matrix at different pH; conditions: for pKa from ratiometric emission signal: with R1C
Procedure: FIG. 9. Emission spectra of a pH sensor spot loaded with I1C (signal at ca. 590 nm) and R1C (signal at ca. 650 nm) covalently bound into the SOL-GEL-matrix recorded at different pH values (solid line: pH 2.48, circles: pH 6.26, crosses: 9.89).
(§1) Emission spectroscopy was performed in front-face set-up for sensor spot samples and in a conventional L-shape set-up for measuremetns in solution. A Perkin-Elmer LS50B and a Horiba Fluorolog 3 were used interchangeably. Intensity based sensor measurements were only performed on the LS50B platform. Fluorescence lifetime based sensor measurements were only performed on the Fluorolog 3. Absorption spectroscopy was performed on a Perkin Elmer Lambda1050, with integrating sphere (for sensor spots) and with a 3-detector module for solution samples.
The compounds according to 6 or 7 are mixed into either the ETEOS or the GPTMS gel component 1 h after mixing of the materials described. Subsequently, the ETEOS or the GPTMS gel components are mixed. The two components are then mixed in 1:1 molar ratio and left at a stirring table for no less than 3 days. The dyes 6 or 7 are added in an amount so that a final concentration of 0.1 mM of dye is obtained in the final GPTMS-ETEOS mixture. The resulting GPTMS-ETEOS-dye mixture is then deposited and cured at 110° C. for 3-4 hours.

[2] = Absorption and emission spectra, photophysical properties of pH-responsive triangulenium dyes in solution; design: λmax (wavelength of maximum absorption) / λem (wavelength of maximum emission): unit not given here; conditions: for pKa / λem (wavelength of maximum emission) / λmax (wavelength of maximum absorption): in solution; for ϕfl- (φfl-off, fluorescence quantum yield, off-state): off-state (quenched); for ϕfl- (φfl-on, fluorescence quantum yield, on-state): on-state (not quenched)
Procedure: Absorption and emission spectrum of the prepared triangulenium compounds of Formula (I) were measured and their photophysical properties are compiled in table 2.
pKa is −log10 of the acid dissociation constant, Ka, and is a quantitative measure of the strength of an acid in solution. λmax denotes the wavelength wherein maximum absorption is obtained. λem denotes the wavelength wherein maximum emission is obtained. φfl-on and φfl-off are the fluorescence quantum yields, wherein the responsive fluorescent compounds are in their on-state (not quenched) and off-state (quenched), respectively. Ion/Ioff is the ratio between φfl-on and φfl-off.
All disclosed absorption and emission spectrum measurement shown herein are measured as follows:
as §1

[3] = Photophysical properties and pKa of DAOTA dyes, fluorescence intensity at different pH, 6% DMSO in PBS buffer; conditions: for pKa: 6% DMSO in PBS buffer solution, normalized fluorescence intensity at 588 nm at different pH, sigmoidal fits (FIG. 8)
Text: FIG. 6. Absorption spectra of MR-68_DAOTA measured in 6% DMSO in PBS buffer solution. Circles (o) represent the absorption spectrum of the protonated form (measured at acidic conditions) and crosses (x) represent the absorption spectrum of the deprotonated form (measured at basic conditions).
FIG. 7. Emission spectra of MR-68_DAOTA measured in 6% DMSO in PBS buffer solution. Circles (o) represent the absorption spectrum of the protonated form (measured at acidic conditions) and crosses (x) represent the absorption spectrum of the deprotonated form (measured at basic conditions).
FIG. 8. […] The solid lines are sigmoidal fits to the experimental data.
as §1

[4] = Readout and chemical stability of optical sensor of DMQA+ and 4g in ORMOSIL matrix
Procedure: In order to validate the sensor performance, different stability tests were performed. One critical parameter for an optical sensor is known to be the read-out stability. Another critical parameter for optical sensors is the chemical stability.

[5] = Comparison of solution and sol-gel spectra and titration curves of 4g; conditions: upon attaching to the matrix material
Text: The arrow indicates the change from pH˜11 to pH˜1.

[6] = covalently bound into the SOL-GEL-matrix
[7] = first value of cell, protonated form
[8] = second value of cell, deprotonated form

| Ion/Io (Ion/Ioff, ratio between φfl-on and φfl-off) [2] | pKa [2] | λem (wavelength of maximum emission) [2] | λmax (wavelength of maximum absorption) [2] | ϕfl- (φfl-off, fluorescence quantum yield, off-state) [2] [%] | ϕfl- (φfl-on, fluorescence quantum yield, on-state) [2] [%] | η, quenching efficiency of the fluorescence intensity [3] [%] | pKa [3] | εmax, molar absorption coefficient [3, 7] | λ max, wavelength at the maximum fluorescence intensity [3, 7] | λabs max, wavelength at maximum absorption of the lowest energy transition [3, 7] [nm] | εmax, molar absorption coefficient [3, 8] | λ max, wavelength at the maximum fluorescence intensity [3, 8] | λabs max, wavelength at maximum absorption of the lowest energy transition [3, 8] [nm] | Compound | further results |
| --- | --- | --- | --- | --- | --- | --- | --- | --- | --- | --- | --- | --- | --- | --- | --- |
| ~50 | 8.3 | 563 | 540 | >0.5 | 2 |  |  |  |  |  |  |  |  | Oc1ccc(N2c3cccc4c3C3c5c(cccc5Oc5cccc2c53)O4)cc1 [Compound 3d] |  |
| ~50 | 6.9 | 558 | 541 | >0.5 | 8 |  |  |  |  |  |  |  |  | Oc1ccccc1N1c2cccc3c2C2c4c(cccc4Oc4cccc1c42)O3 [Compound 3b, N-(2-hydroxyphenyl)-azadioxatriangulenium tetrafluoroborat] |  |
| ~100 | 3.4 | 590 | 557 | 6 | 26 |  |  |  |  |  |  |  |  | CCCCCCCCCCCCN1c2cccc3c2C2c4c(cccc4N(c4cc(S(C)(=O)=O)ccc4O)c4cccc1c42)O3 (stereo not drawn) [Compound 4g, 4-dodecyl-8-(2-hydroxy-5-(methylsulfonyl)phenyl)-4,8-diaza-12-oxa-4,8,12,12c-tetrahydro-dibenzo[cd,mn]-pyrenylium] | responsiveness of ratiometric readout signal ([4]; constant illumination, low and high pH): maintains its responsiveness; ratiometric readout signal stable for ([4]; high and low pH): at least 16 hours; spectral change and pH response, solution versus sol-gel [5]: spectral change is minimal while the response to changing pH is maintained |
|  |  | 590 | 557 |  |  |  |  |  |  |  |  |  |  | CCCCCCCCCCCCN1c2cccc3c2C2c4c(cccc4N(c4cc(F)ccc4O)c4cccc1c42)O3 (stereo not drawn) [Compound 4f, 4-dodecyl-8-(5-fluoro-2-hydroxyphenyl)-4,8-diaza-12-oxa-4,8,12,12c-tetrahydro-dibenzo[cd,mn]-pyrenylium] |  |
| ~50 | 7.3 | 558 | 540 | >0.5 | 8 |  |  |  |  |  |  |  |  | Oc1cccc(N2c3cccc4c3C3c5c(cccc5Oc5cccc2c53)O4)c1 [Compound 3c, N-(3-hydroxyphenyl)-azadioxatriangulenium tetrafluoroborat] |  |
| ~50 | 6.5 | 590 | 557 |  |  |  |  |  |  |  |  |  |  | CCCCCCCCCCCCn1c2cccc3oc4cccc5c4[c+](c32)c2c1cccc2n5-c1cc(C(F)(F)F)ccc1O [Compound 4h, N-(2-hydroxy-5-(trifluoromethyI)phenyl)-N-dodecyl-diazaoxatriangulenium hexafluorophosphat] |  |

Second part, the compound before the results:

| Compound | Ion/Io (Ion/Ioff, ratio between φfl-on and φfl-off) [2] | pKa [2] | λem (wavelength of maximum emission) [2] | λmax (wavelength of maximum absorption) [2] | ϕfl- (φfl-off, fluorescence quantum yield, off-state) [2] [%] | ϕfl- (φfl-on, fluorescence quantum yield, on-state) [2] [%] | η, quenching efficiency of the fluorescence intensity [3] [%] | pKa [3] | εmax, molar absorption coefficient [3, 7] | λ max, wavelength at the maximum fluorescence intensity [3, 7] | λabs max, wavelength at maximum absorption of the lowest energy transition [3, 7] [nm] | εmax, molar absorption coefficient [3, 8] | λ max, wavelength at the maximum fluorescence intensity [3, 8] | λabs max, wavelength at maximum absorption of the lowest energy transition [3, 8] [nm] | further results |
| --- | --- | --- | --- | --- | --- | --- | --- | --- | --- | --- | --- | --- | --- | --- | --- |
| 8-(1-methyl-1-propyl-3-(3-(triethoxysilyl)propyl)urea)-4,8-diazatriangulenium-4-(4-(trifluoromethyl)phenolate) [Compound I1C] |  |  |  |  |  |  |  |  |  |  |  |  |  |  | emission signal ([1]; pH sensor spot, covalently bound into the SOL-GEL-matrix): ca. 590 nm; pKa from ratiometric emission signal [1, 6]: 6.3 |
| CCO[Si](CCCNC(=O)N(C)CCCn1c2cccc(OC)c2[c+]2c3c(OC)cccc3n(CCCN(C)C(=O)NCCC[Si](OCC)(OCC)OCC)c3cccc1c32)(OCC)OCC [Compound R1C, 5,9-bis(4,4-diethoxy-10-methyl-9-oxo-3-oxa-8,10-diaza-4-silatridecan-13-yl)-1,13-dimethoxy-5,9-dihydro-13bH-quinolino[2,3,4-kl]acridin-13b-ylium hexafluorophosphate] |  |  |  |  |  |  |  |  |  |  |  |  |  |  | emission signal [1]: ca. 650 nm |
| CN1c2cccc3c2C2c4c(cccc4N(c4cc(C(F)(F)F)ccc4O)c4cccc1c42)O3 (stereo not drawn) [MR-66_DAOTA] |  |  |  |  |  |  | >99 | 6.2 | 16600/16600 M^−1cm^−1 | 585 nm | 553 | 16600/16600 M^−1cm^−1 | 588 nm | 558 |  |
| CN1c2cccc3c2C2c4c(cccc4N(c4cccc(O)c4)c4cccc1c42)O3 (stereo not drawn) |  |  |  |  |  |  | 99 | 8.5 | 13600 M⁻¹ cm⁻¹ | 590/590 nm | 554 | 13500 M⁻¹ cm⁻¹ | 590/590 nm | 559 |  |
| 8-(1-methyl-1-propyl-3-(3-(triethoxysilyl)propyl)urea)-4,8-diazatriangulenium-4-(4-(methylsulfonyl)phenolate) [Compound I2C] |  |  |  |  |  |  |  |  |  |  |  |  |  |  | pKa from ratiometric emission signal [1, 6]: 5.4 |
| CN1c2cccc3c2C2c4c(cccc4N(c4cc(O)cc(C(F)(F)F)c4)c4cccc1c42)O3 (stereo not drawn) [MR-67.1_DAOTA] |  |  |  |  |  |  | 99 | 7.3 | 14700 M⁻¹ cm⁻¹ | 586 nm | 553 | 14300 M⁻¹ cm⁻¹ | 588 nm | 557 |  |
| CN1c2cccc3c2C2c4c(cccc4N(c4ccc(O)cc4)c4cccc1c42)O3 (stereo not drawn) [MR-93_DAOTA] |  |  |  |  |  |  | >99 | 8.6 | 14400 M⁻¹ cm⁻¹ | 591/591 nm | 555 | 14100 M⁻¹ cm⁻¹ | 591/591 nm | 560 |  |
